Common to all, as to format: functional
Test [1] has as its system DU-145. As to the kind of experiment: Cytotoxicity towards DU145 human prostate cancer cell was expressed as median effect dose (MED).
The test system of test [2] is DU-145. Nature of the test: Cytotoxicity was evaluated against DU-145 human prostate cancer cells at 2 log dose.
In test [3] the test system is DU-145. Nature of the test: Cytotoxicity was evaluated against DU-145 human prostate cancer cells at 20 uM concentration.
Test [4] deals with DU-145. Nature of the test: Cytotoxicity was evaluated against DU-145 human prostate cancer cells at 15 uM concentration.
For test [5], the system named is DU-145. Nature of the test: Cytotoxicity was evaluated against DU-145 human prostate cancer cells at 1.7 log dose.
For test [6], the system named is DU-145. As to the kind of experiment: Cytotoxicity was evaluated against DU-145 human prostate cancer cells at 13 uM concentration.
Test [7] concerns DU-145. As to the kind of experiment: Cytotoxicity was evaluated against DU-145 human prostate cancer cells at 1.4 log dose.
The test system of test [8] is DU-145. Nature of the test: Cytotoxicity was evaluated against DU-145 human prostate cancer cells at 10 uM concentration.
For test [9], the system named is DU-145. Nature of the test: Cytotoxicity was evaluated against DU-145 human prostate cancer cells at 0.7 log dose.
Test [10] relates to DU-145. As to the kind of experiment: Cytotoxicity was evaluated against DU-145 human prostate cancer cells at 0.3 log dose.
In test [11] the test system is DU-145. Nature of the test: Cytotoxicity was evaluated against DU-145 human prostate cancer cells at 50 uM concentration.
The subject of test [12] is DU-145. Nature of the test: Cytotoxicity was evaluated against DU-145 human prostate cancer cells at 35 uM concentration.
Test [13] has as its system DU-145. As to the kind of experiment: Cytotoxicity was evaluated against DU-145 human prostate cancer cells at 180 uM concentration.
Test [14] concerns DU-145. As to the kind of experiment: Cytotoxicity was evaluated against DU-145 human prostate cancer cells at 100 uM concentration.
For test [15], the system named is DU-145. Nature of the test: Cytotoxicity was evaluated against DU-145 human prostate cancer cells at 1.5 log dose.
The test system of test [16] is DU-145. As to the kind of experiment: Cytotoxicity was evaluated against DU-145 human prostate cancer cells at 60 uM concentration.
For test [17], the system named is DU-145. Nature of the test: Cytotoxicity was evaluated against DU-145 human prostate cancer cells at 110 uM concentration.

The source of these data is ChEMBL document CHEMBL1131826, “Targeting nitric oxide to cancer cells: cytotoxicity studies of glyco-S-nitrosothiols” (1999).

“And” between values parts separate entries of the source, which are not always exact repeats. Equal entries are not always repeated.

Compound `CC(=O)N[C@@H](C(=O)NC1C(O)OC(CO)C(O)C1O)C(C)(C)SN=O` (stereo not given in full) came in with an MED with DU-145 [1] of 32 µM. Further, the Log effect with DU-145 [2] is 0 and -0.01.

In the case of `CC(=O)N[C@@H](C(=O)N[C@]1(CO)O[C@H](CO)[C@@H](O)[C@@H]1O)C(C)(C)SN=O`, the Surviving fraction with DU-145 [3] is recorded as 0.45; in the test with DU-145 [4], 0.5; in the test on DU-145 [6] it was 0.55; with DU-145 [8], 0.6; with DU-145 [11] it was 0.2. Besides, the Log effect is recorded as 0.9 in the test with DU-145 [5], 0.6 in the test on DU-145 [7], -0.03 in the test on DU-145 [9] and -0.06 with DU-145 [10]. The same compound returned an MED with DU-145 [1] of 8.5 µM.

As for `CC(=O)N[C@@H](C(=O)O)C(C)(C)SN=O`, the MED in the test on DU-145 [1] is 110 µM. The Log effect in the test on DU-145 [7] and with DU-145 [15] was 0 in each case. For the same compound, the Surviving fraction in the test on DU-145 [12] is given as 1; in the test on DU-145 [13] it was 0.2; in the test with DU-145 [14], 0.6; with DU-145 [16], 1; in the test on DU-145 [17] it was 0.5.
